# Biological target: P. falciparum apicoplast DNA polymerase (Pf-apPOL) (Plasmodium falciparum, UniProt Q8ILY1)
# Test: Fluorescence-based high-throughput DNA polymerase assay (molecular beacon), primary screen and dose-response
# Type: biochemical
# Details: for DNA Pol: 90 min, 10 µM
# Procedure, shortened: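 Single-point screening used 10 µM compound with 20 nM polymerase, 20 nM hairpin substrate and 6 µM dNTPs for 90 min at 25 °C. Confirmatory titrations (2.5–80 µM) followed fluorescence at three times, and IC50 was derived from a fit including a cooperativity term n.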
# Sequence of P. falciparum apicoplast DNA polymerase (Pf-apPOL) (Q8ILY1 entry or part of it): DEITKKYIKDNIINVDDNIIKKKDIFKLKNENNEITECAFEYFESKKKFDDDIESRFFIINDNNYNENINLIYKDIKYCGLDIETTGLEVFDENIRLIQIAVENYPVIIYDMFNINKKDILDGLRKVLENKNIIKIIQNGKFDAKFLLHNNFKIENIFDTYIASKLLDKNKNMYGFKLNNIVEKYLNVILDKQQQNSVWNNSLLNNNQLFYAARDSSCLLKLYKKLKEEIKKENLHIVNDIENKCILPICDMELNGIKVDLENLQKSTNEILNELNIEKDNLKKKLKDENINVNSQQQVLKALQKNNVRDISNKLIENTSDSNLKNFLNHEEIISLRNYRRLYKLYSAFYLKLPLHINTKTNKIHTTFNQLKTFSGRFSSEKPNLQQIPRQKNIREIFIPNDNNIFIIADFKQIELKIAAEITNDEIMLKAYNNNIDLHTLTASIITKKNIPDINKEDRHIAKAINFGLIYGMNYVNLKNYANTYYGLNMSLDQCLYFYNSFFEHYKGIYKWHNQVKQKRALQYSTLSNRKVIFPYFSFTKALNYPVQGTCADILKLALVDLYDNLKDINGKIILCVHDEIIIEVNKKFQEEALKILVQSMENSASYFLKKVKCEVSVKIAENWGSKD
compound,measurement,setting,value
"CC(C)CCNC(=O)c1cnn2c(O)cc(CSc3ccc(Cl)cc3)nc12 [Molecule 101, CC(CCNC(=O)c1cnn2c1nc(CSc1ccc(cc1)Cl)cc2O)C]",DNA Pol,'DNA Pol' of the 186 hits list (screen value),47
same,% inhibition Apo pol 10',"DRC-1, conc 2.5",0.1018%
same,% inhibition Apo pol 10',"DRC-1, conc 5",10.5875%
same,% inhibition Apo pol 10',"DRC-1, conc 10",55.0331%
same,% inhibition Apo pol 10',"DRC-1, conc 20",79.7694%
same,% inhibition Apo pol 10',"DRC-1, conc 40",93.5546%
same,% inhibition Apo pol 10',"DRC-1, conc 80",97.7054%
same,% inhibition Apol 90',"DRC-1, 90', conc 2.5",-5.869%
same,% inhibition Apol 90',"DRC-1, 90', conc 5",6.076%
same,% inhibition Apol 90',"DRC-1, 90', conc 10",52.4114%
same,% inhibition Apol 90',"DRC-1, 90', conc 20",78.3109%
same,% inhibition Apol 90',"DRC-1, 90', conc 40",89.1904%
same,% inhibition Apol 90',"DRC-1, 90', conc 80",96.2635%
same,% inhibition apPOL 180',"DRC-1, 180', conc 2.5",-11.3834%
same,% inhibition apPOL 180',"DRC-1, 180', conc 5",-2.604%
same,% inhibition apPOL 180',"DRC-1, 180', conc 10",39.1813%
same,% inhibition apPOL 180',"DRC-1, 180', conc 20",71.0945%
same,% inhibition apPOL 180',"DRC-1, 180', conc 40",85.4085%
same,% inhibition apPOL 180',"DRC-1, 180', conc 80",94.6304%
same,% inhibition Apo pol 5',"DRC-2, 5', conc 2.5",-1.9%
same,% inhibition Apo pol 5',"DRC-2, 5', conc 5",20%
same,% inhibition Apo pol 5',"DRC-2, 5', conc 10",55%
same,% inhibition Apo pol 5',"DRC-2, 5', conc 20",59%
same,% inhibition Apo pol 5',"DRC-2, 5', conc 40",66%
same,% inhibition Apo pol 5',"DRC-2, 5', conc 80",69%
same,% inhibition Apo pol 5',"DRC-2, 5', concentration 40",66%
same,% inhibition Apo pol 5',"DRC-2, 5', concentration 80",69%
same,% inhibition Apol 40',"DRC-2, 40', conc 2.5",-1.08%
same,% inhibition Apol 40',"DRC-2, 40', conc 5",24%
same,% inhibition Apol 40',"DRC-2, 40', conc 10",65%
same,% inhibition Apol 40',"DRC-2, 40', conc 20",69%
same,% inhibition Apol 40',"DRC-2, 40', conc 40",76%
same,% inhibition Apol 40',"DRC-2, 40', conc 80",81%
same,% inhibition Apol 40',"DRC-2, 40', concentration 20",69%
same,% inhibition ApPOL 90',"DRC-2, 90', conc 2.5",-2.68%
same,% inhibition ApPOL 90',"DRC-2, 90', conc 5",22%
same,% inhibition ApPOL 90',"DRC-2, 90', conc 10",66%
same,% inhibition ApPOL 90',"DRC-2, 90', conc 20",70%
same,% inhibition ApPOL 90',"DRC-2, 90', conc 40",77%
same,% inhibition ApPOL 90',"DRC-2, 90', conc 80",83%
same,% inhibition ApPOL 90',"DRC-2, 90', concentration 10",66%
same,% inhibition apPOL 180',"DRC-2, 180', conc 2.5",-4.21%
same,% inhibition apPOL 180',"DRC-2, 180', conc 5",16%
same,% inhibition apPOL 180',"DRC-2, 180', conc 10",60%
same,% inhibition apPOL 180',"DRC-2, 180', conc 20",66%
same,% inhibition apPOL 180',"DRC-2, 180', conc 40",75%
same,% inhibition apPOL 180',"DRC-2, 180', conc 80",85%
same,% inhibition apPOL 180',"DRC-2, 180', concentration 20",66%
same,DNA Pol,"primary screen value, ""DNA Pol""",47
O=c1[nH]c2ccc(Br)cc2c(-c2ccccc2)c1C1=NNC(c2ccco2)C1 (centres unmarked) [KU0045540],% inhibition Apo pol 10',"DRC-1, concentration 2.5",38.7065%
same,% inhibition Apo pol 10',"DRC-1, concentration 5",32.1153%
same,% inhibition Apo pol 10',"DRC-1, concentration 10",58.5243%
same,% inhibition Apo pol 10',"DRC-1, concentration 20",75.2705%
same,% inhibition Apo pol 10',"DRC-1, concentration 40",80.4182%
same,% inhibition Apo pol 10',"DRC-1, concentration 80",78.0702%
same,% inhibition Apol 90',"DRC-1, 90', concentration 2.5",12.887%
same,% inhibition Apol 90',"DRC-1, 90', concentration 5",9.899%
same,% inhibition Apol 90',"DRC-1, 90', concentration 10",32.8734%
same,% inhibition Apol 90',"DRC-1, 90', concentration 20",57.4465%
same,% inhibition Apol 90',"DRC-1, 90', concentration 40",76.3337%
same,% inhibition Apol 90',"DRC-1, 90', concentration 80",82.7097%
same,% inhibition apPOL 180',"DRC-1, 180', concentration 2.5",0.7615%
same,% inhibition apPOL 180',"DRC-1, 180', concentration 5",-2.038%
same,% inhibition apPOL 180',"DRC-1, 180', concentration 10",16.3913%
same,% inhibition apPOL 180',"DRC-1, 180', concentration 20",40.539%
same,% inhibition apPOL 180',"DRC-1, 180', concentration 40",67.9853%
same,% inhibition apPOL 180',"DRC-1, 180', concentration 80",81.6451%
same,% inhibition Apo pol 5',"DRC-2, 5', concentration 2.5 (unit not given)",15%
same,% inhibition Apo pol 5',"DRC-2, 5', concentration 20 (unit not given)",65%
same,% inhibition Apo pol 5',"DRC-2, 5', concentration 40 (unit not given)",65%
same,% inhibition Apol 40',"DRC-2, 40', concentration 2.5 (unit not given)",15%
same,% inhibition Apol 40',"DRC-2, 40', concentration 10 (unit not given)",49%
same,% inhibition Apol 40',"DRC-2, 40', concentration 20 (unit not given)",77%
same,% inhibition ApPOL 90',"DRC-2, 90', concentration 10 (unit not given)",49%
same,% inhibition ApPOL 90',"DRC-2, 90', concentration 20 (unit not given)",77%
same,% inhibition ApPOL 90',"DRC-2, 90', concentration 80 (unit not given)",72%
same,% inhibition apPOL 180',"DRC-2, 180', concentration 20 (unit not given)",72%
same,% inhibition Apo pol 5',"DRC-2, 5', concentration 2.5",15%
same,% inhibition Apo pol 5',"DRC-2, 5', concentration 5",27%
same,% inhibition Apo pol 5',"DRC-2, 5', concentration 10",40%
same,% inhibition Apo pol 5',"DRC-2, 5', concentration 20",65%
same,% inhibition Apo pol 5',"DRC-2, 5', concentration 40",65%
same,% inhibition Apo pol 5',"DRC-2, 5', concentration 80",39%
same,% inhibition Apol 40',"DRC-2, 40', concentration 2.5",15%
same,% inhibition Apol 40',"DRC-2, 40', concentration 5",33%
same,% inhibition Apol 40',"DRC-2, 40', concentration 10",49%
same,% inhibition Apol 40',"DRC-2, 40', concentration 20",77%
same,% inhibition Apol 40',"DRC-2, 40', concentration 40",81%
same,% inhibition Apol 40',"DRC-2, 40', concentration 80",67%
same,% inhibition ApPOL 90',"DRC-2, 90', concentration 2.5",15%
same,% inhibition ApPOL 90',"DRC-2, 90', concentration 2.5 (unit not given)",15%
same,% inhibition ApPOL 90',"DRC-2, 90', concentration 5",31%
same,% inhibition ApPOL 90',"DRC-2, 90', concentration 10",49%
same,% inhibition ApPOL 90',"DRC-2, 90', concentration 20",77%
same,% inhibition ApPOL 90',"DRC-2, 90', concentration 40",83%
same,% inhibition ApPOL 90',"DRC-2, 90', concentration 80",72%
same,% inhibition apPOL 180',"DRC-2, 180', concentration 2.5",11%
same,% inhibition apPOL 180',"DRC-2, 180', concentration 5",22%
same,% inhibition apPOL 180',"DRC-2, 180', concentration 10",41%
same,% inhibition apPOL 180',"DRC-2, 180', concentration 20",72%
same,% inhibition apPOL 180',"DRC-2, 180', concentration 40",82%
same,% inhibition apPOL 180',"DRC-2, 180', concentration 80",75%
same,DNA Pol,"primary screen value of the 186 hits, unit not given",43
same,DNA Pol,"primary screen value, head ""DNA Pol"", unit not given",43
